Entries after “also recorded” stand apart in the source; their conditions may differ.
Key:
[1] = system: CHO cells stably expressing Gaussia luciferase (GLuc); experiment: Secreted Gaussia luciferase assay in CHO cells stably expressing GLuc transfected with Rheb vectors; assay type: cell-based; conditions: for increase in secreted Gaussia luciferase: day 7, normalised to cell number
Procedure: CHO cells stably expressing Firefly luciferase (FLuc) or Gaussia luciferase (GLuc) as indicated were transfected using Lipofectamine3000 with an empty vector (EV) or vectors for Rheb WT, S21L, T23M, G29S, Y35N or E40K and also treated with the mTOR inhibitor AZD8055 at 100 nM for the total duration where indicated. Fluc and GLuc assays were performed 24 h after transfection and then every 48 h for 7 days. Assay results are normalised to cell number. GLuc-CHO cells were harvested for SDS-PAGE and Western Blot analysis at the 168 h (7-day) time-point to probe for intracellular GLuc, FLAG (Rheb) and actin, as ‘loading control’. […] However, Rheb-T23M and —Y35N caused a significant 3-fold increase in secreted Gaussia luciferase that was also seen with E40K and was prevented by treatment with AZD8055 (C/D [histogram of day 7]). In (E), secreted GLuc was monitored every 4 h from 24 h to 60 h showing the rate of secretion of GLuc was higher when Rheb-T23M is expressed as compared to Rheb-Y35N. The pattern for intracellular levels of Gaussia luciferase (assessed by immunoblot of cell lysates harvested at 7 days post transfection) more closely resemble those intracellular firefly luciferase (F) with little change compared to either the empty vector or WT while still retaining heightened mTORC1 signalling as indicated by the elevated levels of P-S6K1 Thr389 compared to cells transfected with the empty vector. CHO cells expressing Rheb-T23M, Y35N and E40K show a small increases in general protein synthesis but a marked increase in secreted Gaussia protein that is blocked by mTOR inhibition. Thus, Rheb[T23M] selectively promotes production of the secreted protein GLuc in a process that requires mTOR signalling.
Constructs were introduced into CHO cells using Lipofectamine3000 (Life Technologies) according to the manufacturer's protocol. Cell lines stably expressing secreted luciferase were generated by cloning the GLuc gene with a signal sequence from Nanolight Technology (see paper sent with this version) and cloning this into the pcDNA4 commercially available vector where gene expression was driven by a CMV promoter. The subsequent vectors were transfected, using lipofectamine, into CHO-S freestyle suspension cells and grown in CD-CHO media and then stable transfectant pools selected by addition of zeocin antibiotic. Once stable pools had emerged these were subjected to limited dilution cloning to obtain a range of pools with different secreted GLuc expression levels. Methods as are described, for example, in Josse et al. (2009) Biotechnology and Bioengineering 105: 556-566.
For Gaussia luciferase, we employed the BioLux® Gaussia Luciferase Assay Kit (New England Biolabs (NEB), Cat. No. E3300S) and for firefly luciferase the Luciferase Assay System from Promega (Cat. No. E1500). Cells were grown in Ham's F12 medium F12 nutrient mix, Ham's (Life Technologies, Cat. No. 11765054).
CHO cells stably expressing Firefly luciferase (FLuc; which is cytoplasmic) or Gaussia luciferase (GLuc; which is secreted) as indicated were transfected using Lipofectamine3000 with an empty vector (EV) or vectors for Rheb WT, S21L, T23M, G29S, Y35N or E40K and treated with the mTOR inhibitor AZD8055 at 100 nM for the total duration where appropriate. Fluc and GLuc assays were performed at 24 h after transfection and then every 48 h for 7 days. Assay results were normalised to cell number. […]

mTORC1 signalling = mTORC1 signalling (Western blot, S6K1 and rpS6) in transfected CHO cells starved of serum and amino acids, with or without TSC1/2 co-transfection; assay type: cell-based; conditions: for mTORC1 signalling in the absence of upstream activation: no serum 16 h, D-PBS 1 h, compared to empty vector and Rheb-WT; for mTORC1 signalling when co-transfected with TSC1/TSC2: no serum and amino acids
Procedure: (§1) GTP. GST-Rheb bound to GDP or GTP was pulled down using glutathione beads and the nucleotides were then separated by thin-layer chromatography and visualized by phosphorimager. The positions of GDP and GTP are shown (FIG. 1A). […] FIGS. 1C-1D: CHO cells were co-transfected using Lipofectamine 3000 with vectors encoding wildtype (WT) Rheb or the indicated mutants and TSC1/2 as indicated. 36 h after transfection, cells were transferred to Ham's F12 media lacking FBS for 16 h. Cells were the transferred to Dulbecco's phosphate-buffered saline (D-PBS, which lacks amino acids) for 1 h before cell lysates were harvested for SDS-PAGE and Western Blotting analysis using the indicated antibodies.

TSC1/TSC2 = experiment: GAP assay: TSC1/TSC2-promoted hydrolysis of GTP bound to recombinant GST-Rheb; assay type: biochemical; conditions: FLAG-TSC1, FLAG-TSC2, [α-32P]GTP, n=3
Text: as §1, with “FIGS. 1A-1B: Recombinant GST-Rheb proteins were subjected to GAP assay in the presence of FLAG-TSC1, FLAG-TSC2 and [α-^32P] GTP.” for “GTP.”, “antibodies. […] This effect is consistent with lack of sensitivity of the mutant Rhebs to TSC1/TSC2. Thus the Rheb mutants S21L, T23M, G29S, Y35N and E40K promote mTORC1 signalling in the absence of upstream activation due to insensitivity to the GAP activity of the TSC complex.” for “antibodies.”
A) Recombinant GST-Rheb proteins were subjected to GTPase assays in the presence of FLAG-TSC1, FLAG-TSC2 and [α-^32P]GTP. Nucleotide-bound GST-Rheb was purified from the reaction mixture using 20 μl glutathione bead slurry. Radioactive GDP and GTP were separated by thin-layer chromatography and visualized by phosphorimager.

[2] = system: mTORC1 localisation at the lysosome; experiment: Immunofluorescence of mTOR and LAMP1 colocalisation in serum-starved transfected CHO cells; assay type: cell-based; conditions: medium lacking FBS for 16 h
Procedure: (§2) 24 h after transfection cells were transferred to medium lacking FBS for 16 hours. Cells were fixed with 4% paraformaldehyde, permeabilized with 0.05% Triton X-100, blocked with 10% normal donkey serum before LAMP1 and then anti-mTOR antibodies were applied overnight. Alexa Fluor™ 488 and 594-labelled secondary antibodies were applied before cells were mounted and stained with DAPI.
as §2, with “h.” for “hours.”, “mTOR” for “then anti-mTOR”, “594” for “594-labelled”

[3] = system: mTORC1 and ER Stress activation markers; experiment: Western blot for mTORC1 and ER stress activation markers in ExpiCHO cells stably expressing Rheb variants; assay type: cell-based
ExpiCHO-S™ cells = experiment: Rabbit IgG secretion by ExpiCHO-S cells stably expressing Rheb variants (Easy-Titer Rabbit IgG Assay); assay type: cell-based; conditions: single replicate; compared to Rheb-WT or Rheb-Y35N
Procedure: Materials and Methods: ExpiCHO-S™ cells were purchased from ThermoFischer Scientific and cultured in ExpiCHO™ Expression Medium at 37° C. at 8% CO2. […] Transfected cells were grown in 600 μg/mL […] for 6 weeks. Surviving cells were plated as single cells in a 96-well plate and monoclonal colonies selected for FLAG-Rheb expression.
Rabbit IgG secretion was determined using the ExpiCHO™ Expression system according to the manufacturer's instructions. Briefly, ExpiCHO™ cells expressing either endogenous Rheb or stably expressing exogenous Rheb were seeded at 6×10^6 cells/mL in 25 mL of ExpiCHO™ Expression Medium and transfected with 20 μg of a pcDNA3.1 vector encoding heavy and light chains of Rabbit IgG at a 1:2 ratio of heavy chain:light chain using ExpiFectamine™ CHO Reagent. 24 hours after transfection, cells were feed with ExpiCHO™ Feed and ExpiFectamine™ CHO Enhancer and transferred to 32° C., 5% CO2. Cells were allowed to grow for 10 days with 100 μL samples taken every day. After 10 days, Cells were pelleted by centrifugation at 4000×g for 30 minutes at 4° C. and the supernatant filtered through a […] PVFD filter and collected. IgG yield was determined using Easy-Titer™ Rabbit IgG Assay kit and calculated from a standard curve.

[4] = system: CHO cells stably expressing Firefly luciferase (FLuc); experiment: Firefly luciferase assay in CHO cells stably expressing FLuc transfected with Rheb vectors; assay type: cell-based; conditions: day 7, normalised to cell number
Procedure: CHO cells stably expressing Firefly luciferase (FLuc) or Gaussia luciferase (GLuc) as indicated were transfected using Lipofectamine3000 with an empty vector (EV) or vectors for Rheb WT, S21L, T23M, G29S, Y35N or E40K and also treated with the mTOR inhibitor AZD8055 at 100 nM for the total duration where indicated. Fluc and GLuc assays were performed 24 h after transfection and then every 48 h for 7 days. Assay results are normalised to cell number. GLuc-CHO cells were harvested for SDS-PAGE and Western Blot analysis at the 168 h (7-day) time-point to probe for intracellular GLuc, FLAG (Rheb) and actin, as ‘loading control’. […] In (E), secreted GLuc was monitored every 4 h from 24 h to 60 h showing the rate of secretion of GLuc was higher when Rheb-T23M is expressed as compared to Rheb-Y35N. The pattern for intracellular levels of Gaussia luciferase (assessed by immunoblot of cell lysates harvested at 7 days post transfection) more closely resemble those intracellular firefly luciferase (F) with little change compared to either the empty vector or WT while still retaining heightened mTORC1 signalling as indicated by the elevated levels of P-S6K1 Thr389 compared to cells transfected with the empty vector. […]

## COc1ccc(-c2ccc3c(N4CCOC[C@@H]4C)nc(N4CCOC[C@@H]4C)nc3n2)cc1CO [AZD8055, reference compound]
[1]; AZD8055 at 100 nM for the total duration
  effect on the Rheb mutant-induced increase in secreted Gaussia luciferase: prevented

## G29S: Rheb mutant G29S created by site-directed mutagenesis of human Rheb [Rheb G29S]
mTORC1 signalling
  mTORC1 signalling in the absence of upstream activation: increased mTORC1 signalling over both the empty vector and Rheb-WT
  mTORC1 signalling when co-transfected with TSC1/TSC2: no reduction
TSC1/TSC2
  hydrolysis of GTP bound to Rheb promoted by TSC1/TSC2: partial resistance; also recorded: a small degree of hydrolysis

## G63A: Rheb mutant G63A tested in the GAP assay [Rheb G63A]
TSC1/TSC2
  hydrolysis of GTP bound to Rheb promoted by TSC1/TSC2: completely unable to promote hydrolysis of GTP; also recorded: did not promote hydrolysis of GTP

## Q64L: Rheb mutant Q64L tested in the GAP assay [Rheb Q64L]
TSC1/TSC2
  hydrolysis of GTP bound to Rheb promoted by TSC1/TSC2: partial resistance; also recorded: a small degree of hydrolysis

## Rheb-E40K: human Rheb protein with a lysine variant at residue 40 (E40K), SEQ ID NO. 5
mTORC1 signalling
  mTORC1 signalling in the absence of upstream activation: increased mTORC1 signalling over both the empty vector and Rheb-WT
  mTORC1 signalling when co-transfected with TSC1/TSC2: no reduction
[2]
  mTOR localisation to the lysosome (overlap with LAMP1): promote localisation; also recorded: mTORC1 localisation at the lysosome is maintained
[3]
  ER stress response (Western blot markers): mild ER stress response
  mTORC1 signalling (Western blot markers): increased mTORC1 signalling
TSC1/TSC2
  hydrolysis of GTP bound to Rheb promoted by TSC1/TSC2: completely unable to promote hydrolysis of GTP; also recorded: did not promote hydrolysis of GTP
[1]
  increase in secreted Gaussia luciferase: 3 fold
ExpiCHO-S™ cells
  rate of IgG secretion determined daily over 10 days: maintain a constant rate of IgG secretion over a longer period

## Rheb-S21L: Rheb mutant S21L created by site-directed mutagenesis of human Rheb
mTORC1 signalling
  mTORC1 signalling in the absence of upstream activation: increased mTORC1 signalling over both the empty vector and Rheb-WT
  mTORC1 signalling when co-transfected with TSC1/TSC2: no reduction
TSC1/TSC2
  hydrolysis of GTP bound to Rheb promoted by TSC1/TSC2: completely unable to promote hydrolysis of GTP; also recorded: did not promote hydrolysis of GTP

## Rheb-Y35N: human Rheb protein with an asparagine variant at residue 35 (Y35N), SEQ ID NO. 4
mTORC1 signalling
  mTORC1 signalling in the absence of upstream activation: increased mTORC1 signalling over both the empty vector and Rheb-WT
  mTORC1 signalling when co-transfected with TSC1/TSC2: no reduction
[2]
  mTOR localisation to the lysosome (overlap with LAMP1): promote localisation; also recorded: strong mTOR localisation on lysosomes
[4]
  increase in synthesis of intracellular Firefly luciferase compared to the empty vector: ca. 1.2 fold
TSC1/TSC2
  hydrolysis of GTP bound to Rheb promoted by TSC1/TSC2: completely unable to promote hydrolysis of GTP; also recorded: did not promote hydrolysis of GTP
[1]
  increase in secreted Gaussia luciferase: 3 fold

Source: patent US12492232B2, “Methods for producing proteins” (South Australian Health and Medical Research Institute …, priority 2018, dated 2025)
